14 compounds from ChEMBL document CHEMBL5634077, “Recent advances in 1,2,3- and 1,2,4-triazole hybrids as antimicrobials and their SAR: A critical review” (2023) can be followed below.

Assay [1] relates to Escherichia coli. As to the kind of experiment: Antimicrobial activity against Escherichia coli assessed as diameter of inhibition zone incubated for 24 hrs by disc-diffusion method. It is filed as functional. A general note: In agar diffusion tests the substance spreads into inoculated agar from a disc or well.
In assay [2] the test system is Candida albicans. As to the kind of experiment: Antimicrobial activity against Candida albicans assessed as diameter of inhibition zone incubated for 24 hrs by disc-diffusion method. It is filed as functional.
The subject of assay [3] is Staphylococcus aureus. As to the kind of experiment: Antimicrobial activity against Staphylococcus aureus assessed as diameter of inhibition zone incubated for 24 hrs by disc-diffusion method. It is filed as functional.
The next assay relates to Klebsiella pneumoniae. As to the kind of experiment: Antimicrobial activity against Klebsiella pneumoniae assessed as diameter of inhibition zone incubated for 24 hrs by disc-diffusion method. It is filed as functional.
For assay [4], the system named is Candida albicans. As to the kind of experiment: Antifungal activity against Candida albicans assessed as diameter of inhibition zone at 50 to 100 ug/ml by disc-diffusion method. It counts as functional. The conditions noted are these: dose 50-100 µg/ml.
The test system of a further assay is Aspergillus flavus. As to the kind of experiment: Antifungal activity against Aspergillus flavus assessed as diameter of inhibition zone at 50 to 100 ug/ml by disc-diffusion method. It is filed as functional. Particulars: dose 50-100 µg/ml.
The test system of assay [5] is Staphylococcus aureus. As to the kind of experiment: Antibacterial activity against Staphylococcus aureus assessed as reduction in bacterial growth incubated for 24 hrs by broth microdilution method. It counts as functional. For orientation: Broth dilution looks for growth in wells or tubes with falling amounts of substance.
Assay [6] concerns Staphylococcus aureus. As to the kind of experiment: Antibacterial activity against Staphylococcus aureus ATCC 29213 assessed as reduction in bacterial growth by micro-broth dilution method. It is filed as functional.
Assay [7] concerns Escherichia coli. As to the kind of experiment: Antibacterial activity against Escherichia coli ATCC 8739 assessed as reduction in bacterial growth by micro-broth dilution method. It is filed as functional.
In assay [8] the test system is Pseudomonas aeruginosa. As to the kind of experiment: Antibacterial activity against Pseudomonas aeruginosa MCCB 0035 assessed as reduction in bacterial growth by micro-broth dilution method. It counts as functional.
The next assay relates to Aspergillus niger. As to the kind of experiment: […] activity against Aspergillus niger NCIM 2191 assessed as reduction in […] by micro-broth dilution method. It counts as functional.
A further assay deals with Aspergillus fumigatus. As to the kind of experiment: […] activity against Aspergillus fumigatus NCIM 2081 assessed as reduction in […] by micro-broth dilution method. It is filed as functional.
The test system of assay [9] is Candida albicans. As to the kind of experiment: Antifungal activity against Candida albicans NCIM 2087 assessed as fungal growth inhibition. It counts as functional.
The subject of another assay is Salmonella typhimurium. As to the kind of experiment: Antibacterial activity against Salmonella typhimurium SL1344 assessed as reduction in microbial growth. It is filed as functional, Salmonella enterica subsp. enterica serovar Typhimurium. Particulars: Salmonella enterica.
For assay [10], the system named is Bacillus subtilis. As to the kind of experiment: Antibacterial activity against Bacillus subtilis ATCC 6633 assessed as reduction in microbial growth. It is filed as functional.
Assay [11] concerns Staphylococcus aureus. As to the kind of experiment: Antibacterial activity against Staphylococcus aureus ATCC 6538p assessed as reduction in microbial growth. It counts as functional.
Assay [12] relates to Escherichia coli. As to the kind of experiment: Antibacterial activity against Escherichia coli ATCC 25922 assessed as reduction in microbial growth. It is filed as functional.
Assay [13] concerns Proteus vulgaris. As to the kind of experiment: Antibacterial activity against Proteus vulgaris ATCC 3851 assessed as reduction in microbial growth. It counts as functional.
For a further assay, the system named is Micrococcus luteus. As to the kind of experiment: Antibacterial activity against Micrococcus luteus IFC 12708 assessed as reduction in microbial growth. It counts as functional.
Assay [14] concerns Escherichia coli. As to the kind of experiment: Antibacterial activity against Escherichia coli assessed as reduction in bacterial growth by broth microdilution method. It is filed as functional.
The test system of assay [15] is Escherichia coli. As to the kind of experiment: Antibacterial activity against Escherichia coli assessed as reduction in bacterial growth. It is filed as functional.
Assay [16] relates to Bacillus subtilis. As to the kind of experiment: Antibacterial activity against Bacillus subtilis assessed as reduction in bacterial growth. It counts as functional.
Assay [17] deals with Pseudomonas aeruginosa. As to the kind of experiment: Antibacterial activity against Pseudomonas aeruginosa NCIM 2036 assessed as reduction in bacterial growth incubated for 18 to 24 hrs by broth microdilution method. It counts as functional. The conditions noted are these: time 18-24 hrs.
The subject of assay [18] is Staphylococcus aureus. As to the kind of experiment: Antibacterial activity against Staphylococcus aureus NCIM 2079 assessed as reduction in bacterial growth incubated for 18 to 24 hrs by broth microdilution method. The conditions noted are these: time 18-24 hrs. It is filed as functional.
The test system of the next assay is Bacillus cereus. As to the kind of experiment: Antibacterial activity against Bacillus cereus NCIM 2156 assessed as reduction in bacterial growth incubated for 18 to 24 hrs by broth microdilution method. It is filed as functional. The conditions noted are these: time 18-24 hrs.
Assay [19] has as its system Escherichia coli. As to the kind of experiment: Antibacterial activity against Escherichia coli NCIM 2065 assessed as reduction in bacterial growth incubated for 18 to 24 hrs by broth microdilution method. The conditions noted are these: time 18-24 hrs. It counts as functional.
The subject of assay [20] is Bacillus subtilis. As to the kind of experiment: Antibacterial activity against Bacillus subtilis NCIM 2063 assessed as reduction in bacterial growth incubated for 18 to 24 hrs by broth microdilution method. It counts as functional. Particulars: time 18-24 hrs.
For a further assay, the system named is Proteus mirabilis. As to the kind of experiment: Antibacterial activity against Proteus mirabilis NCIM 2241 assessed as reduction in bacterial growth incubated for 18 to 24 hrs by broth microdilution method. It is filed as functional. The conditions noted are these: time 18-24 hrs.
The subject of assay [21] is Proteus vulgaris. As to the kind of experiment: Antibacterial activity against Proteus vulgaris NCIM 2027 assessed as reduction in bacterial growth incubated for 18 to 24 hrs by broth microdilution method. It is filed as functional. The conditions noted are these: time 18-24 hrs.

For orientation: MIC means the least concentration at which growth counts as inhibited.

SMILES strings stand for the structures. ≈ marks a conversion by molar mass, not a printed value.

On to `Sc1nnc(-c2ccc(Cl)cc2)n1/N=C/c1ccco1`, for which the “diameter of the inhibition zone (DIZ)” value in the assay with Escherichia coli [1], with Candida albicans [2], with Staphylococcus aureus [3] and with Klebsiella pneumoniae was 4 mm in each case.
Turning to `CCOC(=O)C1=C(C)Oc2nc(C)n(Cc3cn(-c4cccc(C(F)(F)F)c4)nn3)c(=O)c2C1c1ccc([N+](=O)[O-])cc1` (configuration not stated), the “diameter of the inhibition zone (DIZ)” value with Candida albicans [4] and with Aspergillus flavus was 10.5 mm each time.
Regarding `CCOC(=O)C1=C(C)Oc2nc(C)n(Cc3cn(-c4cccc(F)c4)nn3)c(=O)c2C1c1ccc([N+](=O)[O-])cc1` (configuration not stated), the “diameter of the inhibition zone (DIZ)” value in the assay on Candida albicans [4] and with Aspergillus flavus was 12 mm throughout.
Consider `Cc1ccc2c(c1)c(=O)c1ccccc1n2Cc1cn(-c2ccccc2C)nn1`, for which, in the assay on Staphylococcus aureus [5], the MIC was 12.3 µg/mL (≈ 32.4 µM).
On the same count and under the same terms, next, `Cc1ccccc1-n1cc(Cn2c3ccccc3c(=O)c3ccccc32)nn1`: 10.1 µg/mL (≈ 27.6 µM).
Turning to `O=c1cc(-c2ccccc2)c2cc(Cl)ccc2n1Cc1nnc2n1N=C(c1ccccc1)CS2`, the MIC in the assay with Staphylococcus aureus [6] amounted to 2 µg/mL (≈ 4.13 µM); in the assay with Escherichia coli [7], 2 µg/mL (≈ 4.13 µM); with Pseudomonas aeruginosa [8], 4 µg/mL (≈ 8.26 µM); in the assay on Aspergillus niger, 2 µg/mL (≈ 4.13 µM); in the assay with Aspergillus fumigatus, 8 µg/mL (≈ 16.5 µM); in the assay with Candida albicans [9], 1 µg/mL (≈ 2.07 µM).
Regarding `S=c1[nH]nc(-c2ccc(Cl)cc2Cl)n1/N=C/c1ccco1`, the “diameter of the inhibition zone (DIZ)” value in the assay on Escherichia coli [1], with Candida albicans [2], in the assay with Staphylococcus aureus [3] and in the assay on Klebsiella pneumoniae was 3 mm each time.
In the case of `O=c1cc(-c2ccccc2)c2cc(Br)ccc2n1Cc1nnc2n1N=C(c1ccccc1)CS2`, the MIC came to 1 µg/mL (≈ 1.89 µM) with Staphylococcus aureus [6]; 2 µg/mL (≈ 3.78 µM) with Escherichia coli [7]; 4 µg/mL (≈ 7.57 µM) in the assay on Pseudomonas aeruginosa [8]; 4 µg/mL (≈ 7.57 µM) with Aspergillus niger; 32 µg/mL (≈ 60.6 µM) in the assay with Aspergillus fumigatus; 2 µg/mL (≈ 3.78 µM) in the assay with Candida albicans [9].
As for `COc1ccc(N2C(=O)CSC2c2cn(-c3ccccc3)nc2-c2nnn(-c3ccccc3)c2C)cc1` (configuration not stated), the minimal inhibitory concentration (MIC) in the assay on Salmonella typhimurium, in the assay on Bacillus subtilis [10], in the assay with Staphylococcus aureus [11], with Escherichia coli [12], in the assay with Proteus vulgaris [13] and in the assay on Micrococcus luteus was 1.56 µg/mL in each case.
For `Cc1ccc(NC(=O)Cn2cc(Cn3cc(CC(NC(=O)C(C)c4ccc(CC(C)C)cc4)C(=O)NC(Cc4ccccc4)C(N)=O)c4ccccc43)nn2)c(C)c1` (configuration not stated), the minimal inhibitory concentration (MIC) with Escherichia coli [14] is 25 µg/mL (≈ 32 µM).
Turning to `Cc1c(-c2nn(-c3ccccc3)cc2C2SCC(=O)N2c2cc(F)ccc2F)nnn1-c1ccccc1` (configuration not stated), the MIC in the assay on Salmonella typhimurium, with Bacillus subtilis [10], in the assay on Staphylococcus aureus [11], with Escherichia coli [12], in the assay on Proteus vulgaris [13] and with Micrococcus luteus was 1.56 µg/mL each time.
Consider `CC(c1ccc(Br)cc1)n1cc(Cn2cc(/C=C/C(=O)c3ccc(Br)cc3)c3ccccc32)nn1` (configuration not stated), for which the MIC in the assay with Escherichia coli [15] and in the assay on Bacillus subtilis [16] was 10.9 µM (≈ 6.43 µg/mL) in each case.
Take `Nn1c(NCCCNc2ccnc3cc(Cl)ccc23)nn(CN2CCNCC2)c1=S`: the MIC in the assay on Pseudomonas aeruginosa [17] was found to be 25 µg/mL (≈ 55.8 µM); in the assay on Staphylococcus aureus [18] it was 3.12 µg/mL (≈ 6.98 µM); in the assay on Bacillus cereus, 3.12 µg/mL (≈ 6.98 µM); in the assay on Escherichia coli [19], 6.25 µg/mL (≈ 14 µM); in the assay on Bacillus subtilis [20], 12.5 µg/mL (≈ 27.9 µM); with Proteus mirabilis, 12.5 µg/mL (≈ 27.9 µM). Besides, the MIC in the assay on Proteus vulgaris [21] was 12.5 µg/mL (≈ 27.9 µM).
Regarding `COc1cc(/C=N/n2c(-c3ccc(Cl)cc3)n[nH]c2=S)ccc1O`, the “diameter of the inhibition zone (DIZ)” value in the assay with Escherichia coli [1], with Candida albicans [2], in the assay on Staphylococcus aureus [3] and in the assay on Klebsiella pneumoniae was 4 mm in each case.
